Experimental data from ChEMBL document CHEMBL4130615, “Evaluation of Diarylheptanoid-Terpene Adduct Enantiomers from Alpinia officinarum for Neuroprotective Activities” (J Nat Prod, 2018).
Calls of active or inactive are those of the source. No cut-off for these calls is given here.

Key:
Cortical neurone [1] = assay: Neuroprotective activity against MPP+-induced cell death in Sprague-Dawley rat cortical neurons assessed as increase in cell viability at 4 to 32 uM pretreated for 12 hrs followed by MPP+ challenge measured after 20 hrs by MTT assay; assay type: functional, cell-based
Cortical neurone [2] = assay: Neuroprotective activity against MPP+-induced cell death in Sprague-Dawley rat cortical neurons assessed as increase in cell viability at 16 uM pretreated for 12 hrs followed by MPP+ challenge measured after 20 hrs by MTT assay; assay type: functional, cell-based

SMILES: C=CC(=C)CCC=C(C)C
- Activity (Cortical neurone [1]): inactive

SMILES: COc1cc(CC[C@@H]2CC=C(CCC=C(C)C)C[C@H]2C(=O)CCc2ccccc2)ccc1O
- Activity (Cortical neurone [1]): inactive

SMILES: COc1cc(CC/C=C/C(=O)CCc2ccccc2)ccc1O
- Activity (Cortical neurone [1]): inactive

SMILES: COc1cc(CC[C@H]2CC=C(CCC=C(C)C)C[C@@H]2C(=O)CCc2ccccc2)ccc1O
- Activity (Cortical neurone [2]): Active
